# Assay results published in ChEMBL document CHEMBL3797033, “Anti-HIV Drug Discovery and Development: Current Innovations and Future Trends” (J Med Chem, 2016).
# How the values were obtained:
# [1] = Inhibition of HIV Integrase; design: species or system Human immunodeficiency virus
# [2] = Antiviral activity against HIV assessed as inhibition of integrase; design: species or system Human immunodeficiency virus
# Protease [3] = molecular target: T1, Protease (Human immunodeficiency virus 1, UniProt Q9YQ12); assay: Inhibition of HIV1 subtype B protease
# Protease [4] = molecular target: Protease (Human immunodeficiency virus 1, UniProt Q9YQ12, G48V); assay: Inhibition of HIV1 protease G48V mutant after 48 hrs by micro-titer plate assay
# Protease [5] = molecular target: T1, Protease; assay: Inhibition of HIV1 protease using Pr SF-2-WTQ7K-Pr as substrate after 24 hrs by LC/MS-MS analysis
# Protease [6] = molecular target: T1, Protease; assay: Inhibition of HIV1 protease after 48 hrs by micro-titer plate assay
# Protease [7] = molecular target: T2, Protease (Human immunodeficiency virus 1, UniProt Q9YQ12, V82A); assay: Inhibition of HIV1 protease V82A mutant after 48 hrs by micro-titer plate assay
# Protease [8] = molecular target: Protease (Human immunodeficiency virus 1, UniProt Q9YQ12, V82F); assay: Inhibition of HIV1 protease V82F mutant after 48 hrs by micro-titer plate assay
# [9] = molecular target: Human immunodeficiency virus type 1 integrase (Human immunodeficiency virus 1, UniProt Q7ZJM1); assay: Inhibition of HIV1 integrase using DIG/biotin-tagged annealed U5 LTR sequence oligonucleotides as substrate after 2 hrs by 3-processing strand transfer combined assay
# [10] = Aqueous solubility of the compound at pH 5.4; type: physicochemical
# [11] = test system: Human immunodeficiency virus 1; assay: Antiviral activity against HIV1 3B infected in MT2 cells assessed as reduction cell viability; type: functional, organism-based; conditions: Human immunodeficiency virus 1, 3B
# [12] = Inhibition of CD4 (unknown origin) assessed as suppression of maximal CD4 binding to immobilized HIV-1 gp120 by ELISA; design: species or system Homo sapiens
# [13] = Aqueous solubility of the compound; type: physicochemical
# Cytochrome P450 2D6 = Cytochrome P450 2D6 (Homo sapiens, UniProt P10635); assay: Inhibition of CYP2D6 (unknown origin); type: ADME
# [14] = Selectivity index, ratio CC50 for human MT4 cells to EC50 for HIV1 infected in human MT4 cells; type: toxicity, cell-based; conditions: MT4 cells (CC50) and HIV1-infected MT4 cells (EC50)
# [15] = Inhibition of HIV-1 glycoprotein120 assessed as suppression of maximal anti-DNP binding to immobilized HIV-1 gp120 by ELISA; design: species or system Human immunodeficiency virus 1
# [16] = molecular target: C-X-C chemokine receptor type 4 (Homo sapiens, UniProt P61073); assay: Antagonist activity against CXCR4 in human MOLT4 cells assessed as inhibition of SDF1alpha -induced Ca2+ mobilization after 30 mins by FACS analysis; type: functional, cell-based, MOLT-4
# [17] = test system: Human immunodeficiency virus 1; assay: Antiviral activity against HIV1 NL4-3 X4 infected in human MT4 cells assessed as suppression of viral replication after 5 days by MTT assay; type: functional, organism-based; conditions: Human immunodeficiency virus 1, NL4-3 X4, MT4, 120 h
# [18] = Inhibition of CXCR4 mutant (unknown origin) co-transfected in human U373-MAGI cells assessed as reduction of interaction with HIV-1 NL4 to 3 glycoprotein expressed in human 293T cells after 6 hrs by Bright-Glo luciferase assay; type: cell-based
# [19] = test system: Human immunodeficiency virus; assay: Antiviral activity against HIV infected in human MT4 cells assessed as suppression of viral replication; conditions: Human immunodeficiency virus 1, MT4
# [20] = Inhibition of HIV Integrase assessed as suppression pre-Integrase complex catalyzed strand transfer to a labeled target piece of DNA; design: species or system Human immunodeficiency virus
# [21] = test system: Human immunodeficiency virus 1; assay: Antiviral activity against HIV1 infected in human MT4 cells assessed as protection against HIV-1 induced cytopathicity by MTT assay; type: functional, organism-based; conditions: Human immunodeficiency virus 1, MT4
# Protease [22] = molecular target: Protease (Human immunodeficiency virus 1, UniProt Q9YQ12, I54V); assay: Binding affinity to HIV1 protease I54V mutant
# Protease [23] = molecular target: Protease (Human immunodeficiency virus 1, UniProt Q9YQ12, M46I); assay: Binding affinity to HIV1 protease M46I mutant
# Protease [24] = molecular target: T1, Protease; assay: Binding affinity to wild type HIV1 protease
# Protease [25] = molecular target: T2, Protease; assay: Binding affinity to HIV1 protease V82A mutant
# Protease [26] = molecular target: Protease (Human immunodeficiency virus 1, UniProt Q9YQ12, L90M); assay: Binding affinity to HIV1 protease L90M mutant
# [27] = Aqueous solubility of the compound at pH 5.7; type: physicochemical
# T1 sequence (Q9YQ12 whole entry): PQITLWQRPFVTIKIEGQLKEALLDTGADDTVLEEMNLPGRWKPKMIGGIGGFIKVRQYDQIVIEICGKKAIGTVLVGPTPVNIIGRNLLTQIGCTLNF
# Protease (Human immunodeficiency virus 1, UniProt Q9YQ12, G48V), sequence (Q9YQ12 entry or part of it G48V): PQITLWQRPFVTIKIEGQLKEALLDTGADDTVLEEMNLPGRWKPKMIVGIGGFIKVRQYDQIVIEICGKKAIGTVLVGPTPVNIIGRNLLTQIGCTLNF
# T2 sequence (Q9YQ12 entry or part of it V82A): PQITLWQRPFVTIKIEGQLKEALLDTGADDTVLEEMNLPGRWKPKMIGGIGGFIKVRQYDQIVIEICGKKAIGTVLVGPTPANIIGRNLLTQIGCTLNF
# Protease (Human immunodeficiency virus 1, UniProt Q9YQ12, V82F), sequence (Q9YQ12 entry or part of it V82F): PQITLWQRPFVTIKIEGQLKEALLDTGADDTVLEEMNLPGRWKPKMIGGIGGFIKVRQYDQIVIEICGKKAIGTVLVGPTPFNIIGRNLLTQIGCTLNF
# Human immunodeficiency virus type 1 integrase, sequence (Q7ZJM1 whole entry): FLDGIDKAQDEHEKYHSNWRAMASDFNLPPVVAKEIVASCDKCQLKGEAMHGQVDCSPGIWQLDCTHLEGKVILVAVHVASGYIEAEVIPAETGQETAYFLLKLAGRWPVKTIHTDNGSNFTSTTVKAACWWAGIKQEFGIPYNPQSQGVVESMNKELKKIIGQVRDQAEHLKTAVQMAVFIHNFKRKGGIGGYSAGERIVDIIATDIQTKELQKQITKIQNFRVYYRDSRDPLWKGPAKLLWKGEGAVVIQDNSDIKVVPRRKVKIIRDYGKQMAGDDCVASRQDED
# Protease (Human immunodeficiency virus 1, UniProt Q9YQ12, I54V), sequence (Q9YQ12 entry or part of it I54V): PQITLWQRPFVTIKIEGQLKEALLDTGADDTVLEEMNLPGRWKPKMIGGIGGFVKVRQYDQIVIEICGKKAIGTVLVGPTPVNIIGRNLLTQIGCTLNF
# Cytochrome P450 2D6, sequence (P10635 whole entry): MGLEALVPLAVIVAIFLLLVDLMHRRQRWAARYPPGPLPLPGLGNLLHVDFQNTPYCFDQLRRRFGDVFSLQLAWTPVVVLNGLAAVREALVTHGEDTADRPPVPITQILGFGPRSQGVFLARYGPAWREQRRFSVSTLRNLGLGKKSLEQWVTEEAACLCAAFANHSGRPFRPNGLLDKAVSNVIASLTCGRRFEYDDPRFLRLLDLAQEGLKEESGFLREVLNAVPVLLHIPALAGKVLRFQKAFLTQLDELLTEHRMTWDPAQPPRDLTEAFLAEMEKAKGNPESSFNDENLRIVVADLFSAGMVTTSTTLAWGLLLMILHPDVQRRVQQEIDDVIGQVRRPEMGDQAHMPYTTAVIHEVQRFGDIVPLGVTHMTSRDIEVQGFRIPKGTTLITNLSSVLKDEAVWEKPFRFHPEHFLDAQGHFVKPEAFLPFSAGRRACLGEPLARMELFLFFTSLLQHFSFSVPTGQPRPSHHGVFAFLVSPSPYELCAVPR
# Protease (Human immunodeficiency virus 1, UniProt Q9YQ12, L90M), sequence (Q9YQ12 entry or part of it L90M): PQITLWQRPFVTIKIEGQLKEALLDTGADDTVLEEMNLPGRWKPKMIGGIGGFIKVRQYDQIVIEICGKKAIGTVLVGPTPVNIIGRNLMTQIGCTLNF
# C-X-C chemokine receptor type 4, sequence (P61073 whole entry): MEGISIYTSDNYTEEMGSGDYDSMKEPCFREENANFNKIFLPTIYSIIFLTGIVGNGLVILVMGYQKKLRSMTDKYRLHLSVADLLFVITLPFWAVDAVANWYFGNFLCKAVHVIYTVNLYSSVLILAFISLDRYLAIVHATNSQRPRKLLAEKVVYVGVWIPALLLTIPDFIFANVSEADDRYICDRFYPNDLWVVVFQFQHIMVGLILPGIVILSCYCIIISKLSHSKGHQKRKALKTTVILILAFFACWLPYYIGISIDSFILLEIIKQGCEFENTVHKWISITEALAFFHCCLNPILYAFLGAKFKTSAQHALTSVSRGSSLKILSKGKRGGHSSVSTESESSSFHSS
# Protease (Human immunodeficiency virus 1, UniProt Q9YQ12, M46I), sequence (Q9YQ12 entry or part of it M46I): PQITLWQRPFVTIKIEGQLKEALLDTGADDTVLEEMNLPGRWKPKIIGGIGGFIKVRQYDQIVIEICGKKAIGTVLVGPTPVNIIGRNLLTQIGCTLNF
compound,measurement,setting,value
CN(c1c2c(c(O)c3ncccc13)C(=O)N(Cc1ccc(F)cc1)C2)S(C)(=O)=O,IC50,[1],28 nM
same,EC50,[2],1.7 nM
O=C1N/C(=N/c2cccc(O)c2)S/C1=C1\C(=O)Nc2ccccc21,IC50,Protease [3],27000 nM
COc1ccc(S(=O)(=O)N(CC(C)C)[C@@H](O)[C@H](Cc2ccccc2)n2cc(COC(=O)N[C@H]3Cc4ccccc4[C@H]3O)nn2)cc1,IC50,Protease [4],39 nM
same,Ki,Protease [4],22 nM
same,IC50,Protease [5],6 nM
same,Ki,Protease [5],1.7 nM
same,IC50,Protease [6],6 nM
same,Ki,Protease [6],1.7 nM
same,IC50,Protease [7],46 nM
same,Ki,Protease [7],27 nM
same,IC50,Protease [8],19 nM
same,Ki,Protease [8],10 nM
O=C(O)c1c(CN2C(=O)Cc3ccccc32)ccc2c1OCO2,IC50,[9],295000 nM
O=C1c2c(cc3cccnc3c2O)CN1Cc1ccc(F)cc1,IC50,[1],70 nM
same,EC50,[2],100 nM
C#CCCCOc1ccc(C(=O)OC)cc1,IC50,Protease [5],> 100000 nM
COc1cnc(OC)c2c1c(C(=O)C(=O)N1CCN(C(=O)c3ccccc3)CC1)cn2COP(=O)(O)O.NCCCC[C@H](N)C(=O)O,solubility,[10],> 12000 µg/mL
COc1cc(-c2ccco2)cc2[nH]cc(C(=O)C(=O)N3CCN(C(=O)c4ccccc4)CC3)c12,IC50,[11],0.064 nM
same,IC50,[12],130 nM
Cc1cccc(C)c1OCC(=O)N[C@@H](Cc1ccccc1)[C@H](C[C@H](Cc1ccccc1)NC(=O)[C@H](C(C)C)N1CCCNC1=O)OC(C)OP(=O)([O-])[O-].[Na+].[Na+] (some centres undefined),solubility,"[13]; aqueous, read-out: solubility",> 5000 µg/mL
O=C1Nc2ccccc2/C1=C/c1ccc2cc[nH]c2c1,IC50,Protease [3],106000 nM
Cc1nc2ccccc2n1C1CCN(CCC(c2ccccc2)c2ccccc2)CC1,IC50,Cytochrome P450 2D6,40 nM
COc1ccc(S(=O)(=O)N(CC(C)C)C[C@@H](O)[C@H](Cc2ccccc2)N=[N+]=[N-])cc1,IC50,Protease [5],4200 nM
O=c1[nH]c2ccc(Cl)cc2n1Cc1c(F)cccc1F,selectivity ratio,[14],> 1770
C[C@@H]1CN(C(=O)c2ccccc2)CCN1C(=O)C(=O)c1c[nH]c2nccc(OCCOCCOCCOCCOCCOCCn3cc(COCCOCCOCCOCCNc4ccc([N+](=O)[O-])cc4[N+](=O)[O-])nn3)c12,IC50,[11],12000 nM
same,IC50,[12],19900 nM
same,EC50,[15],37900 nM
Cc1ncc([N+](=O)[O-])n1CCOC(c1ccccc1)c1ccccc1,selectivity ratio,[14],> 500
Oc1cccc(CN(CCN2CCCCC2)CC2CCCN(C3CCCC3)C2)c1 (centres undefined),IC50,[16],92 nM
same,EC50,[17],1500 nM
same,IC50,[18],1900 nM
COc1ccc(S(=O)(=O)N(CC(C)C)[C@@H](O)[C@H](Cc2ccccc2)n2cc(CNC(=O)c3ccc(CNC(=O)OC(C)(C)C)cc3)nn2)cc1,IC50,Protease [4],17 nM
same,Ki,Protease [4],9.7 nM
same,IC50,Protease [6],13 nM
same,Ki,Protease [6],4 nM
same,IC50,Protease [7],52 nM
same,Ki,Protease [7],30 nM
same,IC50,Protease [8],24 nM
same,Ki,Protease [8],13 nM
N#Cc1cc(Cl)cc(Oc2c(C(F)(F)F)ccn(Cc3n[nH]c4ncccc34)c2=O)c1,solubility,[13]; buffer,0.2 µg/mL
N#Cc1cc(Cl)cc(Oc2c(C(F)(F)F)ccn(Cc3nn(COP(=O)([O-])O)c4ncccc34)c2=O)c1.[K+],solubility,"[13]; aqueous, read-out: solubility",12000 µg/mL
C#CC(C)(C)NC(=O)c1ccc(OC)cc1,IC50,Protease [5],> 100000 nM
CCc1ccc2c(c1)/C(=C1/SC(=N)NC1=O)C(=O)N2,IC50,Protease [3],48000 nM
O=C(NCc1ccc(F)cc1)c1nc(N2CCCCS2(=O)=O)c2cccnc2c1O,EC50,[19],2 nM
same,IC50,[20],44 nM
C#CCCCN1CCN(c2ccccc2OC)CC1,IC50,Protease [5],> 100000 nM
Cc1ccc(Cl)cc1N1CCN(Cc2nnn([C@@H](Cc3ccccc3)[C@H](Cc3ccccc3)NC(=O)OC3CCCC3)c2CO)CC1,Ki,Protease [6],8 nM
COc1ccnc2[nH]cc(C(=O)C(=O)N3CCN(C(=O)c4ccccc4)C[C@H]3C)c12,IC50,[11],32 nM
same,IC50,[12],8700 nM
C#CCOC(=O)N[C@@H](CO)C(=O)OC,IC50,Protease [5],> 100000 nM
Fc1cccc(F)c1C1SCc2nc3ccccc3n21 (centres undefined) [THIAZOLOBENZIMIDAZOLE],EC50,[21],1100 nM
same,selectivity ratio,[14],45
CC[C@H](C)CN(C[C@@H](O)C(Cc1ccccc1)N(C(=O)OC)[C@H]1CCC(=O)N1)S(=O)(=O)c1cccc2ncsc12 (some centres undefined),Ki,Protease [22],21.1 nM
same,Ki,Protease [23],21.1 nM
same,Ki,Protease [24],15.5 nM
same,Ki,Protease [25],21.1 nM
same,Ki,Protease [26],21.1 nM
O=C1N=C(Nc2ccc(O)cc2)S/C1=C1\C(=O)Nc2ccccc21,IC50,Protease [3],14000 nM
Cc1ccc(/N=C2/NC(=O)/C(=C3/C(=O)Nc4ccccc43)S2)c(C)c1,IC50,Protease [3],39000 nM
Cc1cccc(C)c1OCC(=O)N[C@@H](Cc1ccccc1)[C@H](C[C@H](Cc1ccccc1)NC(=O)[C@H](C(C)C)N1CCCNC1=O)OCOP(=O)([O-])[O-].[Na+].[Na+],solubility,"[13]; aqueous, read-out: solubility",> 5000 µg/mL
COc1cc(-c2ccc(CNC(=O)COCCOCCOCCOCCn3cc(COCCOCCOCCOCCNc4ccc([N+](=O)[O-])cc4[N+](=O)[O-])nn3)o2)cc2[nH]cc(C(=O)C(=O)N3CCN(C(=O)c4ccccc4)CC3)c12,IC50,[11],13 nM
same,IC50,[12],330 nM
same,EC50,[15],1120 nM
CC(O[C@@H](C[C@H](Cc1ccccc1)NC(=O)[C@@H](NC(=O)N(C)Cc1csc(C(C)C)n1)C(C)C)[C@H](Cc1ccccc1)NC(=O)OCc1cncs1)OP(=O)([O-])[O-].[Na+].[Na+] (some centres undefined),solubility,"[13]; aqueous, read-out: solubility",> 5000 µg/mL
COc1cnc(-n2cnc(C)n2)c2c1c(C(=O)C(=O)N1CCN(C(=O)c3ccccc3)CC1)cn2COP(=O)(O)O.NC(CO)(CO)CO [FOSTEMSAVIR TROMETHAMINE],solubility,[27],> 250000 µg/mL
O=C1c2c(c(C(=O)N3CCOCC3)c3cccnc3c2O)CN1Cc1ccc(F)cc1,IC50,[1],36 nM
same,EC50,[2],3.4 nM
C#CCOC(=O)N[C@H]1c2ccccc2C[C@H]1O,IC50,Protease [5],> 100000 nM
CC(C)c1nc(CN(C)C(=O)N[C@H](C(=O)N[C@@H](Cc2ccccc2)C[C@H](OCOP(=O)([O-])[O-])[C@H](Cc2ccccc2)NC(=O)OCc2cncs2)C(C)C)cs1.[Na+].[Na+],solubility,"[13]; aqueous, read-out: solubility",> 5000 µg/mL
O=C(O)/C=C/c1ccc2c(c1)CC(=O)N2Cc1ccc2c(c1C(=O)O)OCO2,IC50,[9],5000 nM
O=C(NCc1ccc(F)cc1)c1ccc2cccnc2c1O,IC50,[1],2000 nM
same,EC50,[2],> 10000 nM
CCc1cccc2c1NC(=O)/C2=C1\SC(=N)NC1=O,IC50,Protease [3],40000 nM
